Reference: patent US11207312B2, “Metallo-beta-lactamase inhibitors and methods of use thereof” (priority 2017, dated 2021)

Assays:
IMP-1 = IMP-1 (Serratia marcescens, UniProt P52699); experiment: biochemical; details: CCF2-FA fluorescence assay, 2 hours at 25° C.; read-out: IMP1 IC50
Experimental: (§1) The Class B enzyme activities were measured in the presence of the test inhibitor in a fluorescence assay against a commercially available substrate consisting of a cephalosporin core linking 7-hydroxycoumarin to fluorescein (CCF2-FA). The enzyme (NDM-1, IMP-1 or VIM-1) and the substrate were diluted in 100 mM KH2PO4 buffer (pH 7) containing 0.005% Tween-20 and 10 μM ZnSO4. In the assay, the final concentration of enzyme was 1 pM, 2 pM and 30 pM for NDM-1, IMP-1 and VIM-1, respectively, and the final concentration of CCF2-FA was 1.25 μM. The test inhibitor was dissolved in dimethylsulfoxide and diluted 1:50 in the assay, resulting in a final concentration range of 20 μM to 0.00063 μM. In a 384-well microplate, the test inhibitor was incubated with the metallo-β-lactamase enzyme and the substrate for 2 hours at 25° C. Fluorescence at 460 nm following excitation at 405 nm was measured. The IC50 value was determined from semi-logarithmic plots of enzyme inhibition versus inhibitor concentration, with a curve generated using a 4-parameter fit.

VIM-1 = VIM-1 (Pseudomonas aeruginosa (strain ATCC 15692 / DSM 22644 / CIP 104116 / JCM 14847 / LMG 12228 / 1C / PRS 101 / PAO1), UniProt A0A0F7KYQ8); experiment: biochemical; details: CCF2-FA fluorescence assay, 2 hours at 25° C.; read-out: VIM1 IC50
Experimental: as §1

VIM-2 = VIM-2 (Escherichia coli, UniProt Q5U7L7); experiment: biochemical; details: CCF2-FA fluorescence assay; read-out: VIM2 IC50
[1] = test system: Escherichia coli expressing NDM-1 (CLB30016); format: cell-based; details: with imipenem 1 μg/ml; 95% inhibition of bacterial growth
Experimental: (§2) The bacterial strains tested included the clinical strains Escherichia coil expressing NDM-1 (CLB30005, CLB30016), Serratia marcescens expressing IMP-1 (CL5741), and Klebsiella pneumoniae expressing VIM-1 (H-LMA599644). Inhibitor activity was measured in the presence and absence of imipenem in a 384-well microplate.
(§3) The clinical strains CLB30016, CL5741 and IHMA599644 were grown on trypticase soy agar containing 5% sheep's blood. The bacteria on agar plates were incubated at 35° C. with humidity overnight. The following day, individual colonies from each clinical strain were picked and resuspended in 5 ml saline to attain an OD600 of […], for CLB30016, C15741 and IHMA599644, respectively. These were further diluted 1:100 into 1.1× CAMHB and used to inoculate the test wells as described below.
(§4) Imipenem in 10 mM 3-(N-morpholino)propanesulfonic acid (MOPS, pH 7) was stored in single use aliquots at −80° C. […] On the day of the assay, 4 μl of antibiotic was added to 45 μl of bacteria followed by 1 μl of test compound and mixed by pipetting and with an orbital shaker. The concentration of antibiotic used in the assay was 1 μg/ml. Microplates were covered and incubated at 35° C. for 22 hours to 24 hours. At the end of the incubation, absorbance was determined using a spectrophotometer. The synergistic concentration of MBLI was determined by identifying the lowest concentration of test compound in the presence of a given concentration of antibiotic that was required to inhibit 95% of the growth of the bacteria. The results for Examples 1-209 are reported in Table 1, expressed as the concentration of compound that potentiated the action of antibiotic (imipenem) affecting 95% inhibition of bacterial growth (MITC95).

[2] = test system: Klebsiella pneumoniae expressing VIM-1 (IHMA599644); format: cell-based; details: with imipenem 1 μg/ml; 95% inhibition of bacterial growth
Experimental: as §2, §3, §4

[3] = test system: Serratia marcescens expressing IMP-1 (CL5741); format: cell-based; details: with imipenem 1 μg/ml; 95% inhibition of bacterial growth
Experimental: as §2, §3, §4

[4] = test system: P. aeruginosa MB9798 (efflux+, IMP-1 plasmid); details: for MB9798 MITC95 P. aeruginosa uM Efflux WT: efflux + (MB9798) strain, imipenem at 2 μg/mL, in the presence of a class A, C, D serine β-lactamase inhibitor closely related to relebactam; for Efflux ratio: fold difference between efflux+ (MB9798) and efflux− (MB9799) strains
Description: (§5) The strain background is Pseudomonas aeruginosa PAO1. A wild-type (M135919) and an isogenic strain in which multiple efflux pumps have been disrupted genetically were used. The MBL IMP-1, obtained from a clinical isolate was introduced into the strain pair by the following process:
(§6) The plasmid DNA was transformed into parental MB5919 (oprD+, efflux+, inducible AmpC) and MB5890 (oprD+, efflux−, inducible AmpC) isogenic strains by electroporation.
(§7) The strain set was then used as a pair to determine the effect of metallo-β-lactamase inhibitors of Formula I on the MIC of imipenem and/or ceftazidime. A fixed concentration of antibiotic is included in standard microbroth MIC tests, usually at the CLSI breakpoint concentration, A fixed amount of a class A/C beta-lactamase inhibitor is also included to inhibit the resident Pseudomonas AmpC enzyme. A serial titration of the metallo-β-lactamase inhibitor was included and the concentration of metallo-β-lactamase inhibitor which restores susceptibility of the strain to the included antibiotic was recorded. That concentration of metallo-β-lactamase inhibitor was then compared between the two strains to determine the fold difference between the efflux+(MB9798) and efflux−(MI39799) strains, which indicates the extent to which the MBLi is subject to efflux.

[5] = test system: P. aeruginosa MB9799 (efflux-, IMP-1 plasmid); format: cell-based, Pseudomonas aeruginosa; details: efflux − (MB9799) strain; imipenem at 2 μg/mL; in the presence of a class A, C, D serine β-lactamase inhibitor closely related to relebactam
Description: as §5, §6, §7

NDM-1 = NDM-1 (Klebsiella pneumoniae, UniProt C7C422); experiment: biochemical; format: biochemical; details: CCF2-FA fluorescence assay, 2 hours at 25° C.
Chain of NDM-1 (C7C422 whole entry, looked up, species assumed): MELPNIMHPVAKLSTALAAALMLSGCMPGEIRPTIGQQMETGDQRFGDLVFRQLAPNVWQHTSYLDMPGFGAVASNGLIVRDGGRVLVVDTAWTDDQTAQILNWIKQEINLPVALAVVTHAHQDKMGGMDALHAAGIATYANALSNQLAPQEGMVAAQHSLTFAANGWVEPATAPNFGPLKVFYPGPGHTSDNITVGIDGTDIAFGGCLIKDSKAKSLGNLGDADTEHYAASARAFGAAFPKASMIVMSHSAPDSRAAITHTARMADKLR
Experimental: as §1

Chain of IMP-1 (P52699 whole entry, looked up, species assumed): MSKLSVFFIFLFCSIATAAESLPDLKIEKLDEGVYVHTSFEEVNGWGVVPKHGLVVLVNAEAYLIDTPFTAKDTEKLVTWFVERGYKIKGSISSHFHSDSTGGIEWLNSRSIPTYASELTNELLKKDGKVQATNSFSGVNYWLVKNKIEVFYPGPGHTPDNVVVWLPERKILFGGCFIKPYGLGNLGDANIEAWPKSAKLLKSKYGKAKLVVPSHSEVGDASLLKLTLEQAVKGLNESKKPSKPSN

SMILES	IC50 (IMP-1)	IC50 (VIM-1)	IC50 (VIM-2)	CLB30016 E. coli MITC95 NDM [1]	IHMA599644 K. pneumoniae MITC95 VIM [2]	CL5741 S. marcescens MITC95 IMP [3]	MB9798 MITC95 P. aeruginosa uM Efflux WT [4]	Efflux ratio [4]	MB9799 MITC95 P. aeruginosa uM Efflux Mutant [5]	IC50 (NDM-1)
NC[C@@H](O)CNS(=O)(=O)c1ccc(N2CC[C@@H](N)[C@@H](F)C2)c(-c2nn[nH]n2)c1S(N)(=O)=O (single isomer, unassigned) [Example 1]	5.02 nM	0.31 nM	3.58 nM	0.10 µM	0.39 µM	0.20 µM	0.78 µM	2.00	0.39 µM	
NCCS(=O)(=O)c1ccc(N2CCCCC2)c(-c2nnn[nH]2)c1S(N)(=O)=O [Example 14]	1.34 nM	0.73 nM		0.78 µM	2.34 µM	2.34 µM	12.50 µM	16.00	0.78 µM	3.94 nM
NCCS(=O)(=O)c1ccc(N2CCOCC2)c(-c2nnn[nH]2)c1S(N)(=O)=O [Example 15]	6.5 nM	2.51 nM		1.56 µM	3.13 µM	3.13 µM	12.50 µM	8.00	1.56 µM	11.5 nM
NC[C@@H](O)CNS(=O)(=O)c1ccc(N2CCC3(CC2)CNC(=O)OC3)c(-c2nn[nH]n2)c1S(N)(=O)=O [Example 26, (R)-N^1-(3-amino-2-hydroxypropyl)-4-(3-oxo-2-oxa-4,9-diazaspiro[5.5]undecan-9-yl)-3-(2H-tetrazol-5-yl)benzene-1,2-disulfonamide]	1.02 nM	0.63 nM	2.74 nM	12.50 µM	12.50 µM	6.25 µM	6.25 µM	2.00	3.13 µM	
N[C@@H]1CCCN(c2ccc(S(=O)(=O)C3CNC3)c(S(N)(=O)=O)c2-c2nnn[nH]2)C1 [Example 28, (R)-3-(3-aminopiperidin-1-yl)-6-(azetidin-3-ylsulfonyl)-2-(1H-tetrazol-5-yl)benzenesulfonamide]	463 nM	37.2 nM		0.78 µM	1.56 µM	6.25 µM	50.00 µM	8.00	6.25 µM	61.9 nM
N[C@H]1CCCN(c2ccc(S(=O)(=O)C3CNC3)c(S(N)(=O)=O)c2-c2nnn[nH]2)C1 [Example 29, (S)-3-(3-aminopiperidin-1-yl)-6-(azetidin-3-ylsulfonyl)-2-(1H-tetrazol-5-yl)benzenesulfonamide]	229 nM	9.45 nM		1.56 µM	0.78 µM	6.25 µM	25.00 µM	8.00	3.13 µM	86 nM
NS(=O)(=O)c1c(S(=O)(=O)C2CNC2)ccc(N2CCC3(CCNCC3)CC2)c1-c1nnn[nH]1 [Example 30, 6-(azetidin-3-ylsulfonyl)-3-(3,9-diazaspiro[5.5]undecan-3-yl)-2-(1H-tetrazol-5-yl)benzenesulfonamide]	5.2 nM	2.01 nM		0.78 µM	1.56 µM	1.56 µM	1.56 µM	2.00	0.78 µM	2.62 nM
NC1CCCN(c2ccc(S(=O)(=O)C3CNC3)c(S(N)(=O)=O)c2-c2nnn[nH]2)CC1 (stereo not drawn) [Example 32, 3-(4-aminoazepan-1-yl)-6-(azetidin-3-ylsulfonyl)-2-(1H-tetrazol-5-yl)benzenesulfonamide]	191 nM	2.14 nM		6.25 µM	1.56 µM	3.13 µM	12.50 µM	4.00	3.13 µM	122 nM
NC1CCCCN(c2ccc(S(=O)(=O)C3CNC3)c(S(N)(=O)=O)c2-c2nnn[nH]2)C1 (stereo not drawn) [Example 33, 3-(3-aminoazepan-1-yl)-6-(azetidin-3-ylsulfonyl)-2-(1H-tetrazol-5-yl)benzenesulfonamide]	137 nM	4.43 nM		1.56 µM	0.78 µM	3.13 µM	25.00 µM	8.00	3.13 µM	110 nM
NC[C@@H](O)CNS(=O)(=O)c1ccc(N2CC[C@H](CN)C2)c(-c2nn[nH]n2)c1S(N)(=O)=O [Example 124, N1-((R)-3-amino-2-hydroxypropyl)-4-((R)-3-(aminomethyl)pyrrolidin-1-yl)-3-(2H-tetrazol-5-yl)benzene-1,2-disulfonamide]	23.1 nM	3.18 nM	37.2 nM	0.39 µM	0.78 µM	0.78 µM	3.13 µM	2.00	1.56 µM	
NS(=O)(=O)c1ccc(N2CCC3(CCNCC3)C2=O)c(-c2nn[nH]n2)c1S(N)(=O)=O [Example 134, 4-(1-oxo-2,8-diazaspiro[4.5]decan-2-yl)-3-(2H-tetrazol-5-yl)benzene-1,2-disulfonamide]	480 nM	62.9 nM		6.25 µM	6.25 µM	12.50 µM	50.00 µM	8.00	6.25 µM	182 nM
